Assay results: article PMC7926793, “Synthesis and Biological Evaluation of 1-(Diarylmethyl)-1H-1,2,4-triazoles and 1-(Diarylmethyl)-1H-imidazoles as a Novel Class of Anti-Mitotic Agent for Activity in Breast Cancer” (Pharmaceuticals, 2021)

Assays:
[1] = system: MDA-MB-231/ATCC; assay: NCI 60 cell line screen (Breast Cancer); format: cell-based, human
[2] = system: SK-MEL-28; assay: NCI 60 cell line screen (Melanoma); format: cell-based, human; details: SK-MEL-28, single dose 10 µM
[3] = molecular target: T1, CYP1A1 (Homo sapiens, UniProt P04798); assay: cytochrome P450 assay (DBF fluorescence); details: for IC50: IC50 CYP1A1; for inhibition at 25 min, 20 µg/mL: human, recombinant CYP1A1, pH 7.4, probe dibenzylfluorescein (DBF), 2.0 μM
T1 sequence (P04798 1-512): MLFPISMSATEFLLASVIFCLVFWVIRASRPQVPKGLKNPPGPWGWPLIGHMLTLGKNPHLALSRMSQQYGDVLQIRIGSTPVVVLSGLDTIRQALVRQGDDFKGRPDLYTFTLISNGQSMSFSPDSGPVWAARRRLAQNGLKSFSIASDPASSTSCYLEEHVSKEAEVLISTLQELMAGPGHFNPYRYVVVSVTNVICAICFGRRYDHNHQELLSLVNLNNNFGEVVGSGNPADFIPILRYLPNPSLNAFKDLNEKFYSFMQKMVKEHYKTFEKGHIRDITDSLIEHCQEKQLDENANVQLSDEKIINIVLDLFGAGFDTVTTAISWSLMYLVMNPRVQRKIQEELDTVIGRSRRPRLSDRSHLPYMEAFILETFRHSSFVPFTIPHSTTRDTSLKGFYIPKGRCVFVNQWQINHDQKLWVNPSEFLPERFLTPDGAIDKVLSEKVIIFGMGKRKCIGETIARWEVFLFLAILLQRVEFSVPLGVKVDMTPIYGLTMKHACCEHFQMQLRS

[4] = system: DU-145; assay: NCI 60 cell line screen (Prostate cancer); format: cell-based, human
[5] = system: MCF-7; assay: NCI 60 cell line screen (Breast Cancer); format: cell-based, human
[6] = system: ACHN; assay: NCI 60 cell line screen (Renal Cancer); format: cell-based, human
[7] = system: MDA-MB-468; assay: NCI 60 cell line screen (Breast Cancer); format: cell-based, human
[8] = system: EKVX; assay: NCI 60 cell line screen (Non-Small Cell Lung Cancer); format: cell-based, human
[9] = system: SNB-19; assay: NCI 60 cell line screen (CNS Cancer); format: cell-based, human
[10] = system: CAKI-1; assay: NCI 60 cell line screen (Renal Cancer); format: cell-based, human
[11] = system: NCI-H552; assay: NCI 60 cell line screen (Non-Small Cell Lung Cancer); format: cell-based, human
[12] = system: A498; assay: NCI 60 cell line screen (Renal Cancer); format: cell-based, human
[13] = system: COLO 205; assay: NCI 60 cell line screen (Colon Cancer); format: cell-based, human
[14] = system: TK-10; assay: NCI 60 cell line screen (Renal Cancer); format: cell-based, human; details: TK-10, single dose 10 µM
[15] = system: OVCAR-4; assay: NCI 60 cell line screen (Ovarian Cancer); format: cell-based, human
[16] = system: 786-0; assay: NCI 60 cell line screen (Renal Cancer); format: cell-based, human
[17] = system: NCI/ADR-RES; assay: NCI 60 cell line screen (Ovarian Cancer); format: cell-based, human
[18] = system: NCI-H226; assay: NCI 60 cell line screen (Non-Small Cell Lung Cancer); format: cell-based, human
[19] = system: MALME-3M; assay: NCI 60 cell line screen (Melanoma); format: cell-based, human; details: single dose 10 µM
[20] = system: NCI-H23; assay: NCI 60 cell line screen (Non-Small Cell Lung Cancer); format: cell-based, human
[21] = system: SK-MEL-5; assay: NCI 60 cell line screen (Melanoma); format: cell-based, human
[22] = system: UACC-257; assay: NCI 60 cell line screen (Melanoma); format: cell-based, human
[23] = system: HL-60 (TB); assay: NCI 60 cell line screen (Leukemia); format: cell-based, human
[24] = system: NCI-H332M; assay: NCI 60 cell line screen (Non-Small Cell Lung Cancer); format: cell-based, human
[25] = system: OVCAR-5; assay: NCI 60 cell line screen (Ovarian Cancer); format: cell-based, human
[26] = molecular target: T2, CYP19 (aromatase) (Homo sapiens, UniProt P11511); assay: cytochrome P450 assay (DBF fluorescence); details: for inhibition at 20 µg/mL: read-out: % Inhibition at 20 µg/mL CYP19
T2 sequence (P11511 1-503): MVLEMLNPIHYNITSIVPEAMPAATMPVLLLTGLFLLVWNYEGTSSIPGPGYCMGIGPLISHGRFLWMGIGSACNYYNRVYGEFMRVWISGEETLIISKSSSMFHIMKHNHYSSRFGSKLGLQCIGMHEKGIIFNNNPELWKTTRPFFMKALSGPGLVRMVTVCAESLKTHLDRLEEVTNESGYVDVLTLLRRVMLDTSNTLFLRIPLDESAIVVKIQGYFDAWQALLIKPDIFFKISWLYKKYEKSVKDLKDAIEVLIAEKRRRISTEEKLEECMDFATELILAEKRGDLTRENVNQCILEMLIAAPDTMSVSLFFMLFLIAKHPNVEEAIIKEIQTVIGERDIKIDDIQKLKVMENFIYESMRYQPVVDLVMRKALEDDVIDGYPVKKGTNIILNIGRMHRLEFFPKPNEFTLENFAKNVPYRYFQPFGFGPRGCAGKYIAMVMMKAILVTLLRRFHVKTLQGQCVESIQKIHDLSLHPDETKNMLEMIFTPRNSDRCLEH

[27] = system: SK-MEL-2; assay: NCI 60 cell line screen (Melanoma); format: cell-based, human

COc1ccc(C(c2cc(OC)c(OC)c(OC)c2)n2ccnc2)cc1O (stereo not drawn) [21l, 5-((1H-Imidazol-1-yl)(3,4,5-Trimethoxyphenyl)Methyl)-2-Methoxyphenol]
GI50 ([1]; Homo sapiens, NCI 5 dose assay): 664 nM
Growth percentage ([1]; single dose 10 µM): 34.75%
Growth percentage [2]: 62.95%
IC50 [3]: > 54000 nM
inhibition at 25 min, 20 µg/mL [3]: 18.4%
Growth percentage ([4]; DU-145, single dose 10 µM): 12.91%
GI50 ([4]; Homo sapiens, DU-145, NCI 5 dose assay): 407 nM
GI50 ([5]; Homo sapiens, MCF7, MCF-7, NCI 5 dose assay): 339 nM
Growth percentage ([5]; MCF-7, single dose 10 µM): 18.38%
GI50 ([6]; Homo sapiens, NCI 5 dose assay): 693 nM
Growth percentage ([6]; single dose 10 µM): 42.41%
GI50 ([7]; Homo sapiens, MDA-MB-468, NCI 5 dose assay): 316 nM
Growth percentage ([7]; MDA-MB-468, single dose 10 µM): 15.64%
GI50 ([8]; Homo sapiens, NCI 5 dose assay): 702 nM
Growth percentage ([8]; single dose 10 µM): 30.23%
GI50 ([9]; Homo sapiens, SNB-19, NCI 5 dose assay): 532 nM
Growth percentage ([9]; SNB-19, single dose 10 µM): 30.51%
Growth percentage ([10]; CAKI-1, single dose 10 µM): 41.26%
GI50 ([10]; Homo sapiens, CAKI-1, NCI 5 dose assay): 681 nM
GI50 ([11]; Homo sapiens, 60 cell, NCI-H552, NCI 5 dose assay): 247 nM
Growth percentage ([11]; NCI-H552, single dose 10 µM): 12.12%
Growth percentage ([12]; A498, single dose 10 µM): 8.04%
GI50 ([12]; Homo sapiens, A498, NCI 5 dose assay): 304 nM
Growth percentage ([13]; COLO 205, single dose 10 µM): -9.99%
GI50 ([13]; Homo sapiens, COLO 205, NCI 5 dose assay): 361 nM
Growth percentage [14]: 52.86%
GI50 ([15]; Homo sapiens, OVCAR-4, NCI 5 dose assay): 3440 nM
Growth percentage ([15]; OVCAR-4, single dose 10 µM): 73.56%
Growth percentage ([16]; 786-0, single dose 10 µM): 19.99%
GI50 ([16]; Homo sapiens, 786-0, NCI 5 dose assay): 369 nM
GI50 ([17]; Homo sapiens, NCI 5 dose assay): 1920 nM
Growth percentage ([17]; single dose 10 µM): 12.06%
GI50 ([18]; Homo sapiens, NCI-H226, NCI 5 dose assay): 640 nM
Growth percentage ([18]; NCI-H226, single dose 10 µM): 68.70%
Growth percentage [19]: 66.57%
GI50 ([20]; Homo sapiens, NCI-H23, NCI 5 dose assay): 882 nM
Growth percentage ([20]; NCI-H23, single dose 10 µM): 38.92%
GI50 ([21]; Homo sapiens, SK-MEL-5, NCI 5 dose assay): 367 nM
Growth percentage ([21]; SK-MEL-5, single dose 10 µM): -12.88%
GI50 ([22]; Homo sapiens, UACC-257, NCI 5 dose assay): 1440 nM
Growth percentage ([22]; UACC-257, single dose 10 µM): 37.75%
GI50 ([23]; Homo sapiens, NCI 5 dose assay): 229 nM
Growth percentage ([23]; single dose 10 µM): -35.94%
GI50 ([24]; Homo sapiens, NCI 5 dose assay): 789 nM
Growth percentage ([24]; single dose 10 µM): 48.23%
GI50 ([25]; Homo sapiens, OVCAR-5, NCI 5 dose assay): 648 nM
Growth percentage ([25]; OVCAR-5, single dose 10 µM): 71.11%
inhibition at 20 µg/mL [26]: 74.7%
GI50 ([27]; Homo sapiens, SK-MEL-2, NCI 5 dose assay): 324 nM
Growth percentage ([27]; SK-MEL-2, single dose 10 µM): 43.54%

COc1ccc(C(c2cc(OC)c(OC)c(OC)c2)n2nccn2)cc1O (stereo not drawn) [compound 24]
IC50 [3]: > 53800 nM
inhibition at 25 min, 20 µg/mL [3]: 12.8%
IC50 ([26]; IC50 CYP19): > 53800 nM
inhibition at 20 µg/mL [26]: 0.01%
